According to patent US4835160A, “Derivatives of pyridoindole, having anti-tumor properties” (Sanofi, priority 1986, dated 1989):

Tests used:
leukemia P388 = assay: Test for leukemia P388, IP/IP, D1; assay type: in vivo, CDF1 hybrid mice; conditions: for Number of survivors: day D30; for T/C %: survival time
Procedure: The antitumour activity was tested in vivo on various tumours inoculated in various ways according to the following general protocol:
All the male or female mice are inoculated on day D0 with a known quantity of viable tumour cells for ascitic tumours or with a known tumour fragment for solid tumours.
They are then distributed into various groups. Each group, corresponding to the animals treated by the product under test, is made up of 10 mice. The product under test is dissolved in distilled water and it is administered n times (Dx-Dy), n, y, and x varying according to the protocol chosen, at the rate of 0.1 ml of solution per 10 g by weight of mice treated and at specific doses for each protocol.
The "negative control" group, corresponding to the animals which are not treated by the product, contains 2√N animals, N being equal to or greater than the total number of mice treated by the product in the same experiment.
Finally, the tests can also be carried out at the same time as the study of a group called "positive control", of ten animals, which is treated by a molecule, known for its antitumour activity and which can vary according to the protocol chosen, in the same conditions as the groups treated by the product under test.
The antitumour activity is evaluated, in the case of ascitic tumours, by considering the increase in the survival time of the animals treated in comparison to that of the animals in the "negative control" group, according to the formula: [formula]
Also, a product is considered as toxic at the dose studied when this T/C value is equal to or less than 85%. In addition, a product is also considered as toxic at the dose studied when the weight variation, expressed in grams and calculated by the formula: […]
The tests are carried out with CDF1 hybrid mice inoculated by intraperitoneal route with 10^6 leukemia cells from the P 388 line. The compound under test is administered for 5 successive days (D1-D5) by intraperitoneal route. The positive control for the test is 5-fluorouracile which is administered in the same conditions. The number of surviving animals is evaluated on day D30.
(b) Test for Leukemia P388, IP/IP, D1 (GERAN et al. Cancer chemother., 1972, 2, 07-57).
The test is carried out according to the preceding protocol, the compound under test being administered only on day D1.

in vivo [1] = assay: in vivo; set-up: species or system female CDF1 hybrid mice; conditions: mouse, iv
Procedure: In addition the administration, to healthy female CDF1 hybrid mice, in a single injection by intravenous route with a perfusor, lasting 4 minutes, of the compounds under test in solution in physiological serum at a rate of 0.1 ml of solution per 10 g weight of the animals has enabled it to be established that the compounds are also well tolerated at a high dosage in these conditions.

leukemia P 388 = assay: Test of leukemia P 388; IP/IP, D1-5; assay type: in vivo, CDF1 hybrid mice; conditions: D1-D5; for Number of survivors: day D30; for T/C %: survival time
How it was run: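 CDF1 hybrid mice received 10^6 P 388 cells intraperitoneally, then compound in distilled water by intraperitoneal route daily D1-D5, 10 mice per group, 5-fluorouracil as positive control. Activity judged as T/C survival time versus untreated controls, survivors counted at D30; T/C ≤85% or day 5 minus day 1 weight change ≤ −4 g counted as toxic.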

in vivo [2] = assay: in vivo; set-up: species or system CDF1 hybrid mice; conditions: mouse, ip, 50 mg/kg
Text: The compounds of the invention benefit from a good tolerance and a weak toxicity.
Thus the administration, to healthy CDF1 hybrid mice, in a single injection by intraperitoneal route, of the compounds under test, has enabled it to be established that the product is perfectly tolerated at a high dosage since the survival rate of the animals of the experiment was 100 out of 100 thirteen days after administration.

melanoma B 16 = assay: Test for melanoma B 16; assay type: in vivo, BDF1 hybrid mice; conditions: D1-D9; for Number of survivors: day D60; for T/C %: survival time
How it was run: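 BDF1 mice inoculated i.p. with 0.5 ml B16 melanoma homogenate (1 g tumour in 10 ml physiological serum); compound given i.p. daily D1–D9, Cis-platine positive control under same conditions. Surviving animals counted on D60; activity as survival increase vs untreated controls (T/C), toxicity if T/C ≤85%.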

CCN(CC)CCCNc1ncc(C)c2[nH]c3ccc(O)cc3c12 [Derivative No. 7, 1-(diethylaminopropylamino)-8-hydroxy-4-methyl-5H-pyrido[4,3-b]indole]
Median day of survival (leukemia P388; 10 mg/kg IP): 15.1 days
Variation by weight (g) (leukemia P388; 10 mg/kg IP): +1.2 g
Number of survivors (leukemia P388; 10 mg/kg IP): 0/10
T/C % (leukemia P388; 10 mg/kg IP): 129%
Median day of survival (leukemia P388; 20 mg/kg IP): 16.25 days
Variation by weight (g) (leukemia P388; 20 mg/kg IP): +0.2 g
Number of survivors (leukemia P388; 20 mg/kg IP): 0/10
T/C % (leukemia P388; 20 mg/kg IP): 139%
Median day of survival (leukemia P388; 40 mg/kg IP): 15.9 days
Variation by weight (leukemia P388; 40 mg/kg IP): -0.2 g
Number of survivors (leukemia P388; 40 mg/kg IP): 0/10
T/C % (leukemia P388; 40 mg/kg IP): 136%
Median day of survival (leukemia P388; 80 mg/kg IP): 2.3 days
Variation by weight (leukemia P388; 80 mg/kg IP): -1.7 g
Number of survivors (leukemia P388; 80 mg/kg IP): 0/10
T/C % (leukemia P388; 80 mg/kg IP): 20%
survival at 192 h (in vivo [1]; 25 mg/kg): 100%
survival at 192 h (in vivo [1]; 30 mg/kg): 100%
Median day of survival (leukemia P 388; 0.625 mg/kg IP): 14.3 days
Variation by weight (g) (leukemia P 388; 0.625 mg/kg IP): +0.3 g
Number of survivors (leukemia P 388; 0.625 mg/kg IP): 0/10
T/C % (leukemia P 388; 0.625 mg/kg IP): 127%
Median day of survival (leukemia P 388; 1.25 mg/kg IP): 17.25 days
Variation by weight (g) (leukemia P 388; 1.25 mg/kg IP): +0.3 g
Number of survivors (leukemia P 388; 1.25 mg/kg IP): 0/10
T/C % (leukemia P 388; 1.25 mg/kg IP): 153%
Median day of survival (leukemia P 388; 2.5 mg/kg IP): 18.25 days
Variation by weight (g) (leukemia P 388; 2.5 mg/kg IP): +0.1 g
Number of survivors (leukemia P 388; 2.5 mg/kg IP): 0/10
T/C % (leukemia P 388; 2.5 mg/kg IP): 162%
Median day of survival (leukemia P 388; 5 mg/kg IP): 19.25 days
Variation by weight (g) (leukemia P 388; 5 mg/kg IP): +0.3 g
Number of survivors (leukemia P 388; 5 mg/kg IP): 0/10
T/C % (leukemia P 388; 5 mg/kg IP): 170%
Median day of survival (leukemia P 388; 10 mg/kg IP): 20.9 days
Variation by weight (leukemia P 388; 10 mg/kg IP): -0.2 g
Number of survivors (leukemia P 388; 10 mg/kg IP): 0/10
T/C % (leukemia P 388; 10 mg/kg IP): 185%
Median day of survival (leukemia P 388; 15 mg/kg IP): 23.55 days
Variation by weight (g) (leukemia P 388; 15 mg/kg IP): +1.6 g
Number of survivors (leukemia P 388; 15 mg/kg IP): 3/10
T/C % (leukemia P 388; 15 mg/kg IP): 208%
Median day of survival (leukemia P 388; 20 mg/kg IP): 27.0 days
Variation by weight (leukemia P 388; 20 mg/kg IP): -1.1 g
Number of survivors (leukemia P 388; 20 mg/kg IP): 1/10
T/C % (leukemia P 388; 20 mg/kg IP): 238%
Median day of survival (leukemia P 388; 30 mg/kg IP): 9.25 days
Variation by weight (leukemia P 388; 30 mg/kg IP): 0.0 g
Number of survivors (leukemia P 388; 30 mg/kg IP): 0/10
T/C % (leukemia P 388; 30 mg/kg IP): 81%
survival at 312 h (in vivo [2]): 100%
Median day of survival (melanoma B 16; 2.5 mg/kg IP): 34 days
Variation by weight (g) (melanoma B 16; 2.5 mg/kg IP): +3.6 g
Number of survivors (melanoma B 16; 2.5 mg/kg IP): 0/10
T/C % (melanoma B 16; 2.5 mg/kg IP): 124%
Median day of survival (melanoma B 16; 5 mg/kg IP): 48 days
Variation by weight (melanoma B 16; 5 mg/kg IP): -0.1 g
Number of survivors (melanoma B 16; 5 mg/kg IP): 0/10
T/C % (melanoma B 16; 5 mg/kg IP): 174%
Median day of survival (melanoma B 16; 10 mg/kg IP): 56.25 days
Variation by weight (g) (melanoma B 16; 10 mg/kg IP): +1.6 g
Number of survivors (melanoma B 16; 10 mg/kg IP): 4/10
T/C % (melanoma B 16; 10 mg/kg IP): 205%
Median day of survival (melanoma B 16; 20 mg/kg IP): 58 days
Variation by weight (melanoma B 16; 20 mg/kg IP): -0.8 g
Number of survivors (melanoma B 16; 20 mg/kg IP): 5/10
T/C % (melanoma B 16; 20 mg/kg IP): 211%
Median day of survival (melanoma B 16; 30 mg/kg IP): 9.0 days
Variation by weight (melanoma B 16; 30 mg/kg IP): -1.0 g
Number of survivors (melanoma B 16; 30 mg/kg IP): 0/10
T/C % (melanoma B 16; 30 mg/kg IP): 33%
